This assay has as its target KDM3B (Homo sapiens, UniProt Q7LBC6). In words: KDM3B AlphaScreen assay (Table 1). The class given is biochemical. As for the experimental part: AlphaScreen assays were performed in 384-well plate format using white AlphaPlate™ (PerkinElmer®, USA), and transfer of pre-diluted compound (100 nL) was performed using a Janus® Workstation (PerkinElmer®, USA). All subsequent steps were carried out in assay buffer (50 mM 4-(2-hydroxyethyl)-1-piperazineethanesulfonic acid (HEPES), pH 7.5, 0.1% (wt/vol) bovine serum albumin (BSA) and 0.01% (vol/vol) Tween®20). In brief, 10 μL of assay buffer containing demethylase enzyme (2 nM Final) was pre-incubated for 15 min with dilutions of compound. The enzyme reaction was initiated by the addition of substrate (5 μL) consisting of L-ascorbic acid (100 μM Final), […] (OG) (5 μM Final), FAS (10 μM Final) and histone H3(1-21)K9Me3-GGK Biotin (100 nM Final). The enzyme reaction was allowed to proceed for 30 minutes and was stopped by the addition of 5 μL of assay buffer containing ethylenediaminetetraacetic acid (EDTA) (40 mM) and NaCl (1,200 mM). The final concentration of DMSO was 1%. Streptavidin donor beads (0.08 mg/ml) and protein-A-conjugated acceptor beads (0.08 mg/ml) were preincubated for 1 h with antibody to methyl mark (300 ng/mL Final), and the presence of histone H3 product methyl mark was detected using the preincubated AlphaScreen™ beads (5 μL). […] Data were normalized to the (no-enzyme) control, and the IC50 values were determined via nonlinear regression curve fit using GraphPad Prism 7.
Data are expressed as IC50 (μM).
(In general: Bead proximity is the source of the signal in Alpha formats.)

SMILES strings stand for the structures.

Sequence of KDM3B (Q7LBC6 whole entry, species assumed): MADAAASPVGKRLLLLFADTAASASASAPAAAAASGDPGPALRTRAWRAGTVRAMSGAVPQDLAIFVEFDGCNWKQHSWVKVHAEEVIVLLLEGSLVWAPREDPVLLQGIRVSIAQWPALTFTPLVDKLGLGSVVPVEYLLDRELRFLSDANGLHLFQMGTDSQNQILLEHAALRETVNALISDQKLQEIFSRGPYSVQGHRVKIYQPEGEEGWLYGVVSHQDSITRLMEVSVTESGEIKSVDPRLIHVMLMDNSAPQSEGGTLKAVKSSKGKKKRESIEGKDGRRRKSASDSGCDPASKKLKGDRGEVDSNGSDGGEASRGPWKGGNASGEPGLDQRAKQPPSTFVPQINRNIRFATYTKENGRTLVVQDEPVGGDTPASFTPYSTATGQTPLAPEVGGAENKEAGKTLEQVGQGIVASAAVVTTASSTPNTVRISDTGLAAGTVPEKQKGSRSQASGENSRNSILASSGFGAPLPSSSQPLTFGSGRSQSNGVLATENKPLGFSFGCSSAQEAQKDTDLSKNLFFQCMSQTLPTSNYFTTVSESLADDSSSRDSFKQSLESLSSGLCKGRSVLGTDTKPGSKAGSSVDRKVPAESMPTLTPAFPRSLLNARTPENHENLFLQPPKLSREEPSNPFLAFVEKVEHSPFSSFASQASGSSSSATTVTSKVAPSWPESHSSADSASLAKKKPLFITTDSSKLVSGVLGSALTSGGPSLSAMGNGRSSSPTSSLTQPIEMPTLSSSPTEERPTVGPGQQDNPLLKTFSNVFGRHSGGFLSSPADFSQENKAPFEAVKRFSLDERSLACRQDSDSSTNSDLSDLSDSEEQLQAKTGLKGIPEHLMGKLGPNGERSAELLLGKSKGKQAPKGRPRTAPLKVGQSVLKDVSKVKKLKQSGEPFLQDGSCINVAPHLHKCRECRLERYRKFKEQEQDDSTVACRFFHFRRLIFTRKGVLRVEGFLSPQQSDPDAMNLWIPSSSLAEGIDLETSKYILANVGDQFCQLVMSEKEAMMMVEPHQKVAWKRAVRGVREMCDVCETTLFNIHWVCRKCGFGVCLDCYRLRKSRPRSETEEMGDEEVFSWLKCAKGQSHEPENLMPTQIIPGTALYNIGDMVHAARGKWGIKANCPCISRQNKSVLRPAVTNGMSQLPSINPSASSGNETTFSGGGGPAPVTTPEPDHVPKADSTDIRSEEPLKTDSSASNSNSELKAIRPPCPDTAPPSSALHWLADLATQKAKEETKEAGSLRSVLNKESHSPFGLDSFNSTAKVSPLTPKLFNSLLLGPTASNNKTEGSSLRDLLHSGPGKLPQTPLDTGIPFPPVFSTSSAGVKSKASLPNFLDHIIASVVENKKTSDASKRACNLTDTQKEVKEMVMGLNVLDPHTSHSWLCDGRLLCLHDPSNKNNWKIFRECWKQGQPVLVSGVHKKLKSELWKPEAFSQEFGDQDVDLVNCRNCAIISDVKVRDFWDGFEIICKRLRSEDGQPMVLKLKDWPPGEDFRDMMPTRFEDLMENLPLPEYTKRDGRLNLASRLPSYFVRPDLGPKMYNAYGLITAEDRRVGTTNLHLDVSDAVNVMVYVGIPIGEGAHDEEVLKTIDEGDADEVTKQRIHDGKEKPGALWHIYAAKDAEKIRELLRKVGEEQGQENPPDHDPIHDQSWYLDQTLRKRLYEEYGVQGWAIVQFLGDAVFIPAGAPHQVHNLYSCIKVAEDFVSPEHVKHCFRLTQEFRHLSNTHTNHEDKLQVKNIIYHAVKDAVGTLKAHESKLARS

For the compound `CN(C)c1ccc(-c2ccnc(OC3CCN(C(=O)c4cc(C(=O)O)ccc4N)CC3)c2)cc1` [KDM3-43, 4-amino-3-(4-((4-(4-(dimethylamino)phenyl)pyridin-2-yl)oxy)piperidine-1-carbonyl)benzoic acid], half-maximal inhibition (ASSAY 8) (IC50) was put at 61 µM.
For the compound `CN(C)c1ccc(CCNC(=O)CCC(=O)N2CCC(Oc3ccc(C(F)(F)F)cn3)CC2)cc1` [JADA69, N-(4-(dimethylamino)phenethyl)-4-oxo-4-(4-((5-(trifluoromethyl)pyridin-2-yl)oxy)piperidin-1-yl)butanamide], the half-maximal inhibitory concentration (IC50) – broadly, the concentration that inhibits the measured activity by half – (ASSAY 1) came out at 27.9 µM.
As for `CN(C)c1ccc(-c2ccc(OC3CN(C(=O)c4ccccc4[N+](=O)[O-])C3)nc2)cc1` [KDM3-42, (3-((5-(4-(dimethylamino)phenyl)pyridin-2-yl)oxy)azetidin-1-yl)(2-nitrophenyl)methanone], it took 11.8 µM to reach half-maximal inhibition (ASSAY 8) (IC50).
Same read-out and setting: as for `CN(C)c1ccc(-c2ccc(OC3CCN(C(=O)c4cc(C(=O)O)ccc4N)CC3)nc2)cc1` [KDM3-41, 4-amino-3-(4-((5-(4-(dimethylamino)phenyl)pyridin-2-yl)oxy)piperidine-1-carbonyl)benzoic acid], the figure is 49.4 µM.
`CN(C)c1ccc(CCC(=O)Nc2ccc(F)cc2C(=O)N2CCC(Oc3ccc(-c4ccc(CN5CCOCC5)cc4)cn3)CC2)cc1` [KDM3-24]: under “ASSAY 5”, the IC50 was 10.9 µM.
The compound `CN(C)c1ccc(CCNC(=O)/C=C\C(=O)N2CCC(Oc3ccc(-c4ccc(N(C)C)cc4)cn3)CC2)cc1` [KDM3-38, (Z)-N-(4-(dimethylamino)phenethyl)-4-(4-((5-(4-(dimethylamino)phenyl)pyridin-2-yl)oxy)piperidin-1-yl)-4-oxobut-2-enamide] came in with an IC50 (ASSAY 7) of 5.65 µM.
Consider `CC(=O)Nc1ccc(C(=O)N2CCC(Oc3ccc(-c4ccc(N(C)C)cc4)cn3)CC2)c(N)c1` [KDM3-40, N-(3-amino-4-(4-((5-(4-(dimethylamino)phenyl)pyridin-2-yl)oxy)piperidine-1-carbonyl)phenyl)acetamide], for which the IC50 (ASSAY 8) stood at 22.4 µM.
The compound `CN(C)c1ccc(CCC(=O)Nc2ccc(F)cc2C(=O)N2CCC(Oc3cc(N4CCOCC4)ccn3)CC2)cc1` [KDM3-26, 3-(4-(dimethylamino)phenyl)-N-(4-fluoro-2-(4-((4-morpholinopyridin-2-yl)oxy)piperidine-1-carbonyl)phenyl)propanamide] returned an IC50 (ASSAY 6) of 74.3 µM. That is a double-digit micromolar value.
Where the note is “ASSAY 1”, `CN(C)c1ccc(CCNC(=O)CCC(=O)N2CCC(Oc3cc(-c4ccc(N(C)C)cc4)ccn3)CC2)cc1` [JADA84, N-(4-(dimethylamino)phenethyl)-4-(4-((4-(4-(dimethylamino)phenyl)pyridin-2-yl)oxy)piperidin-1-yl)-4-oxobutanamide] had an IC50 of 53 µM.
With `CCOC(=O)c1ccc(N)c(C(=O)N2CCC(Oc3cc(-c4ccc(N(C)C)cc4)ccn3)CC2)c1` [KDM3-31, ethyl 4-amino-3-(4-((4-(4-(dimethylamino)phenyl)pyridin-2-yl)oxy)piperidine-1-carbonyl)benzoate], the IC50 is, setting by setting: (ASSAY 6) 9.43 µM; (ASSAY 7) 8.26 µM; (ASSAY 8) 10.8 µM.
Regarding `CN(C)c1ccc(CCC(=O)Nc2ccc(F)cc2C(=O)N2CCC(Oc3cc(N4CCCCC4)ccn3)CC2)cc1` [KDM3-27, 3-(4-(dimethylamino)phenyl)-N-(4-fluoro-2-(4-((4-(piperidin-1-yl)pyridin-2-yl)oxy)piperidine-1-carbonyl)phenyl)propanamide], it took 11.3 µM to reach half-maximal inhibition (ASSAY 6) (IC50).
Turning to `CN(C)c1ccc(-c2ccc(OC3CCN(C(=O)c4ccccc4[N+](=O)[O-])CC3)nc2)cc1` [KDM3-39, (4-((5-(4-(dimethylamino)phenyl)pyridin-2-yl)oxy)piperidin-1-yl)(2-nitrophenyl)methanone], the IC50 was 10.9 µM (ASSAY 7) and 19.2 µM (ASSAY 8).
Compound `CN(C)c1ccc(CCCNC(=O)c2ccccc2C(=O)N2CCC(Oc3ccc(Br)cn3)CC2)cc1` [JADA133] displayed an IC50 (ASSAY 3) of 18.6 µM. This counts as double-digit micromolar.
As for `CN(C)c1ccc(CCC(=O)Nc2ccc(F)cc2C(=O)N2CCC(Oc3ccc(-c4ccc(N(C)C)cc4)cn3)CC2)cc1` [KDM3-23, 3-(4-(dimethylamino)phenyl)-N-(2-(4-((5-(4-(dimethylamino)phenyl)pyridin-2-yl)oxy)piperidine-1-carbonyl)-4-fluorophenyl)propanamide], the “KDM3B inhibition, verdict in words on Table 1” value was “potent KDM3B inhibitors”. This compound also had an IC50 (ASSAY 5) of 4.78 µM.
On to `CN(C)c1ccc(CCNC(=O)CCC(=O)N2CCC(Oc3ccc(-c4ccc(N(C)C)cc4)cn3)CC2)cc1` [JADA92, N-(4-(dimethylamino)phenethyl)-4-(4-((5-(4-(dimethylamino)phenyl)pyridin-2-yl)oxy)piperidin-1-yl)-4-oxobutanamide], for which the IC50 amounted to 8.78 µM (ASSAY 1), 13.7 µM (ASSAY 2) and 9.79 µM (ASSAY 7).

The values above are taken from patent US20220348563A1, “KDM INHIBITORS AND USES THEREOF” (DANA-FARBER CANCER INSTITUTE, INC., priority 2019, published 2022).
